Measurements as given in ChEMBL document CHEMBL3102722, “Diarylacylhydrazones: Clostridium-selective antibacterials with activity against stationary-phase cells” (Bioorg Med Chem Lett, 2014).
Values after ≈ are worked out from the molar mass of the structure shown. Active and inactive are the calls of the source. The calls are words filed in the database; no cut-off is given here.

How the values were obtained:
Bifidobacterium longum = experiment: Antibacterial activity against Bifidobacterium longum ATCC BAA-999 assessed as growth inhibition after 20 to 24 hrs; type: functional
Clostridium perfringens = experiment: Antibacterial activity against Clostridium perfringens ATCC 13124 assessed as growth inhibition after 20 to 24 hrs; type: functional
Staphylococcus aureus = experiment: Antibacterial activity against Staphylococcus aureus 8325-4 assessed as growth inhibition after 20 to 24 hrs; type: functional
Enterococcus faecalis = experiment: Antibacterial activity against Enterococcus faecalis ATCC 47077 assessed as growth inhibition after 20 to 24 hrs; type: functional
Clostridioides difficile [1] = experiment: Antibacterial activity against Clostridium difficile GC1 clinical isolate assessed as growth inhibition after 20 to 24 hrs; type: functional
Bacteroides fragilis = experiment: Antibacterial activity against Bacteroides fragilis ATCC 25285 assessed as growth inhibition after 20 to 24 hrs; type: functional; conditions: NCTC 9343
Escherichia coli = experiment: Antibacterial activity against Escherichia coli ATCC 700927 assessed as growth inhibition after 20 to 24 hrs; type: functional
Clostridioides difficile [2] = experiment: Antibacterial activity against Clostridium difficile UK6 clinical isolate assessed as growth inhibition after 20 to 24 hrs; type: functional
Clostridioides difficile [3] = experiment: Antibacterial activity against Clostridium difficile UK1 clinical isolate assessed as growth inhibition after 20 to 24 hrs; type: functional
Clostridioides difficile [4] = experiment: Antibacterial activity against Clostridium difficile VPI clinical isolate assessed as growth inhibition after 20 to 24 hrs; type: functional
[5] = tested on: Bacteroides thetaiotaomicron; experiment: Antibacterial activity against Bacteroides thetaiotaomicron ATCC 29148 assessed as growth inhibition after 20 to 24 hrs; type: functional
[6] = Antibacterial activity against Clostridium difficile 630 clinical isolate assessed as growth inhibition after 20 to 24 hrs; type: functional, Clostridioides difficile 630; conditions: Clostridioides difficile
Clostridioides difficile [7] = experiment: Antibacterial activity against Clostridium difficile CD196 assessed as growth inhibition after 20 to 24 hrs; type: functional
Lacticaseibacillus casei = experiment: Antibacterial activity against Lactobacillus casei ATCC 334 assessed as growth inhibition after 20 to 24 hrs; type: functional
Clostridioides difficile [8] = experiment: Ratio of MBC99.9 to MIC for Clostridium difficile CD196; type: functional
[9] = tested on: Limosilactobacillus reuteri; experiment: Antibacterial activity against Lactobacillus reuteri ATCC 23272 assessed as growth inhibition after 20 to 24 hrs; type: functional
Streptococcus mutans = experiment: Antibacterial activity against Streptococcus mutans ATCC 700610 assessed as growth inhibition after 20 to 24 hrs; type: functional
Clostridioides difficile [10] = experiment: Bactericidal activity against Clostridium difficile CD196 after 20 to 24 hrs; type: functional; conditions: read-out: MBC99.9
Clostridioides difficile [11] = experiment: Antibacterial activity against Clostridium difficile 10463 clinical isolate assessed as growth inhibition after 20 to 24 hrs; type: functional
Clostridioides difficile [12] = experiment: Antibacterial activity against stationary phase of Clostridium difficile CD196 assessed as cell killing at 1 to 20 X MIC after 3 to 6 hrs; type: functional
Clostridioides difficile [13] = experiment: Antibacterial activity against Clostridium difficile clinical isolate assessed as growth inhibition; type: functional
[14] = Cytotoxicity against human HepG2 cells assessed as concentration required to decrease cell viability incubated for 24 hrs followed by compound washout measured after 18 hrs by resazurin dye-based assay; conditions: read-out: Activity
FaDu = experiment: Cytotoxicity against human FADU cells assessed as concentration required to decrease cell viability incubated for 24 hrs followed by compound washout measured after 18 hrs by resazurin dye-based assay
Clostridioides difficile [15] = experiment: Antibacterial activity against stationary phase of Clostridium difficile CD196 assessed as cell killing after 3 to 6 hrs; type: functional

Row | Structure (SMILES) | MIC (Bifidobacterium longum) [µg/mL] | MIC (Clostridium perfringens) [µg/mL] | MIC (Staphylococcus aureus) [µg/mL] | MIC (Enterococcus faecalis) [µg/mL] | MIC (Bacteroides fragilis) [µg/mL] | MIC (Escherichia coli) [µg/mL] | MIC [5] [µg/mL] | MIC (Clostridioides difficile [7]) [µg/mL] | MIC (Lacticaseibacillus casei) [µg/mL] | MIC [9] [µg/mL] | MIC (Streptococcus mutans) [µg/mL] | MBC (Clostridioides difficile [10]) [µg/mL] | also measured
1 | O=C(N/N=C/c1c(O)ccc2ccccc12)c1ccc(-c2ccccc2)cc1 | > 50 | 3.13 (≈ 8.54 µM) | > 50 | > 50 | > 50 | > 50 | > 50 | 1.56 (≈ 4.26 µM) | > 50 | > 50 | > 50 | 3.13 (≈ 8.54 µM) | MIC (Clostridioides difficile [1]): 1.5 µg/mL (≈ 4.09 µM); MIC (Clostridioides difficile [2]): 1.5 µg/mL (≈ 4.09 µM); MIC (Clostridioides difficile [3]): 1.5 µg/mL (≈ 4.09 µM); MIC (Clostridioides difficile [4]): 3 µg/mL (≈ 8.19 µM); MIC [6]: 1.5 µg/mL (≈ 4.09 µM); Ratio (Clostridioides difficile [8]): 2; MIC (Clostridioides difficile [11]): 3 µg/mL (≈ 8.19 µM)
2 | CCc1c(Cl)c(O)c(Cl)c(O)c1C(=O)O[C@H]1[C@H](O)[C@H](OC)[C@H](OC/C2=C\C=C\C[C@H](O)/C(C)=C/[C@H](CC)[C@@H](O[C@@H]3OC(C)(C)[C@@H](OC(=O)C(C)C)[C@H](O)[C@@H]3O)/C(C)=C/C(C)=C/C[C@@H]([C@@H](C)O)OC2=O)O[C@@H]1C [FIDAXOMICIN] | ≤ 0.78 | ≤ 0.0075 | 3.13 (≈ 2.96 µM) | 12.5 (≈ 11.8 µM) | > 50 | > 50 | > 50 | 0.18 (≈ 0.17 µM) | > 50 | > 50 | 3.13 (≈ 2.96 µM) |  | Activity (Clostridioides difficile [12]): inactive; MIC90 (Clostridioides difficile [13]): 8 ng/mL (≈ 0.00756 µM)
3 | Cc1cc(C(=O)N/N=C/c2c(O)ccc3ccccc23)[nH]n1 | > 50 | ≤ 3.13 | > 50 | > 50 | > 50 | > 50 | 25 (≈ 84.9 µM) | 3.13 (≈ 10.6 µM) | > 50 | > 50 | > 50 | 3.13 (≈ 10.6 µM) | MCC at 24 h [14]: > 100 µg/mL; Activity (FaDu): > 100 µg/mL; Activity (Clostridioides difficile [15]): Dose-dependent effect
